System: Human patients with short bowel syndrome
Test: Example 1: liver diagnostic biomarkers (total bilirubin, ALT, AST, ALP) in short bowel syndrome patients, every four weeks for 24 weeks
Assay type: in vivo
Description: Human patients with short bowel syndrome were divided into three groups: a control group (16 total individuals) to receive placebo, an experimental group (35 total individuals) to receive teduglutide at 0.05 mg/kg/day throughout the study, and an experimental group (32 total individuals) to receive teduglutide at 0.1 mg/kg/day throughout the study. Patients were treated by subcutaneous injection of placebo or the appropriate dose of teduglutide. As individuals with short bowel syndrome are likely to experience associated liver and kidney disease, known biomarkers of liver and kidney function were monitored every four weeks, for 24 weeks. The liver biomarkers tested included total bilirubin, ALT and AST and ALP. The kidney biomarkers tested included urea nitrogen, creatinine and GFR. Before administration of placebo or teduglutide, diagnostic biomarker levels were tested to establish a baseline for each individual.
To visualize the effect of GLP-2 on the levels of the diagnostic biomarkers, the average change from baseline was calculated for the placebo and teduglutide treated groups for each visit after a baseline was established. The average change from baseline of each group is depicted in FIGS. […]. The numerical figures for each diaanostic biomarker at each time point are depicted in Table 1.
The efficacy of teduglutide in treating liver dysfunction was further tested by sorting the data into two groups: individuals with abnormal baseline values of liver diagnostic biomarkers; and individuals with normal baseline values of liver diagnostic biomarkers. The mean diagnostic biomarker change from baseline for these two groups is shown for ALT (FIGS. 5 and 6) and AST (FIGS. 7 and 8). […] These changes were significant when compared to baseline levels for the group, and when compared to placebo (see FIGS. 5 and 7).
The raw data for this sorting is reproduced in Table 2 below.

[1] = Week 12, range −5%<= and <=5%, teduglutide 0.05 mg/kg/day
[2] = Week 12, range −5%<= and <=5%, teduglutide 0.1 mg/kg/day
[3] = Week 16, range <−5%, teduglutide 0.05 mg/kg/day
[4] = Week 16, range <−5%, teduglutide 0.1 mg/kg/day
[5] = Week 16, range >5%, teduglutide 0.05 mg/kg/day
[6] = Week 16, range >5%, teduglutide 0.1 mg/kg/day
[7] = Week 16, range −5%<= and <=5%, teduglutide 0.05 mg/kg/day
[8] = Week 16, range −5%<= and <=5%, teduglutide 0.1 mg/kg/day
[9] = Week 20, range <−5%, teduglutide 0.05 mg/kg/day
[10] = Week 20, range <−5%, teduglutide 0.1 mg/kg/day
[11] = Week 20, range >5%, teduglutide 0.05 mg/kg/day
[12] = Week 20, range >5%, teduglutide 0.1 mg/kg/day
[13] = Week 20, range −5%<= and <=5%, teduglutide 0.05 mg/kg/day
[14] = Week 20, range −5%<= and <=5%, teduglutide 0.1 mg/kg/day
[15] = Week 24, range <−5%, teduglutide 0.05 mg/kg/day
[16] = Week 24, range <−5%, teduglutide 0.1 mg/kg/day
[17] = Week 24, range >5%, teduglutide 0.05 mg/kg/day
[18] = Week 24, range >5%, teduglutide 0.1 mg/kg/day
[19] = Week 24, range −5%<= and <=5%, teduglutide 0.05 mg/kg/day
[20] = Week 24, range −5%<= and <=5%, teduglutide 0.1 mg/kg/day
[21] = compared to baseline and to placebo

SMILES: CC[C@H](C)[C@H](NC(=O)[C@H](Cc1ccccc1)NC(=O)[C@H](CC(=O)O)NC(=O)[C@H](CCCNC(=N)N)NC(=O)[C@H](C)NC(=O)[C@H](C)NC(=O)[C@H](CC(C)C)NC(=O)[C@H](CC(N)=O)NC(=O)[C@H](CC(=O)O)NC(=O)[C@H](CC(C)C)NC(=O)[C@@H](NC(=O)[C@@H](NC(=O)[C@H](CC(N)=O)NC(=O)[C@H](CCSC)NC(=O)[C@H](CCC(=O)O)NC(=O)[C@H](CC(=O)O)NC(=O)[C@H](CO)NC(=O)[C@H](Cc1ccccc1)NC(=O)[C@H](CO)NC(=O)CNC(=O)[C@H](CC(=O)O)NC(=O)CNC(=O)[C@@H](N)Cc1c[nH]cn1)[C@@H](C)O)[C@@H](C)CC)C(=O)N[C@@H](CC(N)=O)C(=O)N[C@@H](Cc1c[nH]c2ccccc12)C(=O)N[C@@H](CC(C)C)C(=O)N[C@H](C(=O)N[C@@H](CCC(N)=O)C(=O)N[C@H](C(=O)N[C@@H](CCCCN)C(=O)N[C@H](C(=O)N[C@H](C(=O)N[C@@H](CC(=O)O)C(=O)O)[C@@H](C)O)[C@@H](C)CC)[C@@H](C)O)[C@@H](C)CC [teduglutide]
- ALT (SGPT) change from baseline: patients in range, n(%) [1]: 4(11.4%)
- AST (SGOT) change from baseline: patients in range, n(%) [1]: 3(8.6%)
- TOTAL BILIRUBIN change from baseline: patients in range, n(%) [1]: 4(11.4%)
- ALKALINE PHOSPHATASE change from baseline: patients in range, n(%) [2]: 1(3.1%)
- ALT (SGPT) change from baseline: patients in range, n(%) [2]: 2(6.3%)
- AST (SGOT) change from baseline: patients in range, n(%) [2]: 3(9.4%)
- TOTAL BILIRUBIN change from baseline: patients in range, n(%) [2]: 6(18.8%)
- ALKALINE PHOSPHATASE change from baseline: patients in range, n(%) [3]: 20(57.1%)
- AST (SGOT) change from baseline: patients in range, n(%) [3]: 14(40.0%)
- TOTAL BILIRUBIN change from baseline: patients in range, n(%) [3]: 14(40.0%)
- ALKALINE PHOSPHATASE change from baseline: patients in range, n(%) [4]: 21(65.6%)
- AST (SGOT) change from baseline: patients in range, n(%) [4]: 18(56.3%)
- TOTAL BILIRUBIN change from baseline: patients in range, n(%) [4]: 14(43.8%)
- ALKALINE PHOSPHATASE change from baseline: patients in range, n(%) [5]: 6(17.1%)
- ALT (SGPT) change from baseline: patients in range, n(%) [5]: 12(34.3%)
- AST (SGOT) change from baseline: patients in range, n(%) [5]: 8(22.9%)
- TOTAL BILIRUBIN change from baseline: patients in range, n(%) [5]: 9(25.7%)
- ALKALINE PHOSPHATASE change from baseline: patients in range, n(%) [6]: 7(21.9%)
- ALT (SGPT) change from baseline: patients in range, n(%) [6]: 9(28.1%)
- AST (SGOT) change from baseline: patients in range, n(%) [6]: 8(25.0%)
- TOTAL BILIRUBIN change from baseline: patients in range, n(%) [6]: 6(18.8%)
- ALT (SGPT) change from baseline: patients in range, n(%) (Week 16, range >−5%, teduglutide 0.05 mg/kg/day): 16(45.7%)
- ALT (SGPT) change from baseline: patients in range, n(%) (Week 16, range >−5%, teduglutide 0.1 mg/kg/day): 19(59.4%)
- ALKALINE PHOSPHATASE change from baseline: patients in range, n(%) [7]: 2(5.7%)
- ALT (SGPT) change from baseline: patients in range, n(%) [7]: 0(0.0%)
- AST (SGOT) change from baseline: patients in range, n(%) [7]: 6(17.1%)
- TOTAL BILIRUBIN change from baseline: patients in range, n(%) [7]: 3(8.6%)
- ALKALINE PHOSPHATASE change from baseline: patients in range, n(%) [8]: 2(6.3%)
- ALT (SGPT) change from baseline: patients in range, n(%) [8]: 2(6.3%)
- AST (SGOT) change from baseline: patients in range, n(%) [8]: 3(9.4%)
- TOTAL BILIRUBIN change from baseline: patients in range, n(%) [8]: 8(25.0%)
- ALKALINE PHOSPHATASE change from baseline: patients in range, n(%) [9]: 22(62.9%)
- ALT (SGPT) change from baseline: patients in range, n(%) [9]: 17(48.6%)
- AST (SGOT) change from baseline: patients in range, n(%) [9]: 17(48.6%)
- TOTAL BILIRUBIN change from baseline: patients in range, n(%) [9]: 12(34.3%)
- ALKALINE PHOSPHATASE change from baseline: patients in range, n(%) [10]: 19(59.4%)
- ALT (SGPT) change from baseline: patients in range, n(%) [10]: 19(59.4%)
- AST (SGOT) change from baseline: patients in range, n(%) [10]: 16(50.0%)
- TOTAL BILIRUBIN change from baseline: patients in range, n(%) [10]: 14(43.8%)
- ALKALINE PHOSPHATASE change from baseline: patients in range, n(%) [11]: 4(11.4%)
- ALT (SGPT) change from baseline: patients in range, n(%) [11]: 9(25.7%)
- AST (SGOT) change from baseline: patients in range, n(%) [11]: 6(17.1%)
- TOTAL BILIRUBIN change from baseline: patients in range, n(%) [11]: 7(20.0%)
- ALKALINE PHOSPHATASE change from baseline: patients in range, n(%) [12]: 9(28.1%)
- ALT (SGPT) change from baseline: patients in range, n(%) [12]: 8(25.0%)
- AST (SGOT) change from baseline: patients in range, n(%) [12]: 9(28.1%)
- TOTAL BILIRUBIN change from baseline: patients in range, n(%) [12]: 9(28.1%)
- ALKALINE PHOSPHATASE change from baseline: patients in range, n(%) [13]: 1(2.9%)
- ALT (SGPT) change from baseline: patients in range, n(%) [13]: 1(2.9%)
- AST (SGOT) change from baseline: patients in range, n(%) [13]: 4(11.4%)
- TOTAL BILIRUBIN change from baseline: patients in range, n(%) [13]: 6(17.1%)
- ALKALINE PHOSPHATASE change from baseline: patients in range, n(%) [14]: 1(3.1%)
- ALT (SGPT) change from baseline: patients in range, n(%) [14]: 2(6.3%)
- AST (SGOT) change from baseline: patients in range, n(%) [14]: 3(9.4%)
- TOTAL BILIRUBIN change from baseline: patients in range, n(%) [14]: 6(18.8%)
- ALKALINE PHOSPHATASE change from baseline: patients in range, n(%) [15]: 21(60.0%)
- ALT (SGPT) change from baseline: patients in range, n(%) [15]: 18(51.4%)
- AST (SGOT) change from baseline: patients in range, n(%) [15]: 17(48.6%)
- TOTAL BILIRUBIN change from baseline: patients in range, n(%) [15]: 8(22.9%)
- ALKALINE PHOSPHATASE change from baseline: patients in range, n(%) [16]: 20(62.5%)
- ALT (SGPT) change from baseline: patients in range, n(%) [16]: 18(56.3%)
- AST (SGOT) change from baseline: patients in range, n(%) [16]: 15(46.9%)
- TOTAL BILIRUBIN change from baseline: patients in range, n(%) [16]: 11(34.4%)
- ALKALINE PHOSPHATASE change from baseline: patients in range, n(%) [17]: 4(11.4%)
- ALT (SGPT) change from baseline: patients in range, n(%) [17]: 4(11.4%)
- AST (SGOT) change from baseline: patients in range, n(%) [17]: 6(17.1%)
- TOTAL BILIRUBIN change from baseline: patients in range, n(%) [17]: 10(28.6%)
- ALKALINE PHOSPHATASE change from baseline: patients in range, n(%) [18]: 5(15.6%)
- ALT (SGPT) change from baseline: patients in range, n(%) [18]: 11(34.4%)
- AST (SGOT) change from baseline: patients in range, n(%) [18]: 11(34.4%)
- TOTAL BILIRUBIN change from baseline: patients in range, n(%) [18]: 10(31.3%)
- ALKALINE PHOSPHATASE change from baseline: patients in range, n(%) [19]: 0(0.0%)
- ALT (SGPT) change from baseline: patients in range, n(%) [19]: 4(11.4%)
- AST (SGOT) change from baseline: patients in range, n(%) [19]: 3(8.6%)
- TOTAL BILIRUBIN change from baseline: patients in range, n(%) [19]: 4(11.4%)
- ALKALINE PHOSPHATASE change from baseline: patients in range, n(%) [20]: 4(12.5%)
- ALT (SGPT) change from baseline: patients in range, n(%) [20]: 0(0.0%)
- AST (SGOT) change from baseline: patients in range, n(%) [20]: 3(9.4%)
- TOTAL BILIRUBIN change from baseline: patients in range, n(%) [20]: 6(18.8%)
- fraction of individuals experiencing a decrease of more than 5% in ALT versus placebo (beginning at 4 weeks after commencement of treatment): greater fraction of individuals experiencing a decrease of more than 5%
- ALT change from baseline in patients with abnormal baseline values (FIG. 5) [21]: statistically significant improvements
- AST change from baseline in patients with abnormal baseline values (FIG. 7) [21]: statistically significant improvements
- average level of ALP relative to baseline (FIG. 4) (groups receiving teduglutide): decreased relative to baseline for the entire period of the study
- percent of individuals experiencing an increase of greater than 5% in ALP or ALT versus placebo (groups receiving teduglutide): effective prophylactic against increases in biomarkers associated with liver dysfunction
- average decrease of the level of ALT from baseline (FIG. 1) (groups receiving teduglutide, maintained for the entire duration of the study): about 10 U/L
- individuals experiencing a decrease in ALP greater than 5% from baseline (within 4 weeks of the beginning of treatment, groups receiving teduglutide): roughly 60%

Source: patent US20130072430A1, “METHODS FOR TREATMENT OR PROPHYLAXIS OF KIDNEY OR LIVER DYSFUNCTION” (NPS PHARMACEUTICALS, INC., priority 2010, published 2013)
